What is called Kd is the free concentration of one partner at which half of the binding sites on the other are occupied at equilibrium, for simple one-to-one binding.

Among the data in patent US20260098061A1, “EPHA2-BINDING PENDING PEPTIDE AND COMPOSITION COMPRISING SAME” (PeptiDream Inc., priority 2022, published 2026) are Kd values, retold here.

The target in this assay is T1, Recombinant Human EphA2 Fc Protein (Homo sapiens, UniProt P29317).
T1 construct: purchased Elabscience
The experiment in a line: SPR interaction analysis (Biacore T200), kinetics of peptides against EphA2. Format: binding. The conditions noted are these: Recombinant Human EphA2 Fc Protein captured by Human Antibody Capture kit; single-cycle kinetics; 25° C.; HBS-P+ buffer with 1% DMSO. The essentials:
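KD derived from ka and kd, fitted on baseline-subtracted sensorgrams from single-cycle kinetics of five peptide dilutions. Running buffer: HBS-P+ (pH 7.4) plus 1% DMSO, 25° C, Biacore T200. Recombinant human EphA2-Fc held on an antibody capture surface.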

Structures are written as SMILES. Numbered stars: 1 amine (or outer) side, 2 acyl side, 3 side chain; on linkers, the order of the positions; unused ones are H or OH. Bridge positions count the residues as written; N and C are the ends. Square brackets hold non-standard residues; d marks the D form. Side chains are listed from the residue outwards. Peptide text beside a SMILES is read from it. * marks the point of attachment. NH(1-deoxy-D-glucityl) = OC[C@@H](O)[C@@H](O)[C@H](O)[C@@H](O)CN*; NMePhe(4-Cl) = CN[C@@H](Cc1ccc(Cl)cc1)C(=O)O; Piperazinyl(4-CH2COOH) = O=C(O)CN1CCN(*)CC1; Trp(1-Me) = Cn1cc(C[C@H](N)C(=O)O)c2ccccc21; NMe3Pal = CN[C@@H](Cc1cccnc1)C(=O)O; NMeF = CN[C@@H](Cc1ccccc1)C(=O)O; Gly(cBu) = N[C@H](C(=O)O)C1CCC1; NMeE = CN[C@@H](CCC(=O)O)C(=O)O; Aad = N[C@@H](CCCC(=O)O)C(=O)O; dAhp(2) = CCCCC[C@@H](N)C(=O)O; CO = O=C([*:1])[*:2]

In the case of `C[C@H]1NC(=O)CSC[C@@H](C(N)=O)NC(=O)[C@H](CCCC(N)=O)NC(=O)[C@H]([C@@H](C)O)NC(=O)[C@H](Cc2cn(C)c3ccccc23)NC(=O)[C@H](CCC(=O)NC[C@H](O)[C@@H](O)[C@H](O)[C@H](O)CO)NC(=O)[C@H](Cc2cn(C)c3ccccc23)NC(=O)[C@H](Cc2ccccc2)N(C)C(=O)[C@H](CCCC(N)=O)NC(=O)[C@H](C2CCC2)NC(=O)[C@H](CC(N)=O)NC(=O)[C@H](Cc2ccccc2)N(C)C1=O` [PDC_EphA2-00013917, da-MeF-N-Cbg-Hgn-MeF-W1Me-QGlucamine-W1Me-T-Hgn-C-NH2] ({CH2CO}-[dA][NMeF]N[Gly(cBu)][Aad](NH2)[NMeF][Trp(1-Me)]E(NH(1-deoxy-D-glucityl))[Trp(1-Me)]T[Aad](NH2)C-NH2; thioether N-12), the dissociation constant Kd was below 1 nM.

As for `CCCCC[C@H]1NC(=O)CSC[C@@H](C(N)=O)NC(=O)[C@H](CCCC(N)=O)NC(=O)[C@H]([C@@H](C)O)NC(=O)[C@H](Cc2cn(C)c3ccccc23)NC(=O)[C@H](CCCCNC(=O)N2CCN(CC(=O)O)CC2)NC(=O)[C@H](Cc2cn(C)c3ccccc23)NC(=O)[C@H](Cc2ccccc2)N(C)C(=O)[C@H](CCCC(=O)O)NC(=O)[C@H](CC(C)C)NC(=O)[C@H](CC(N)=O)NC(=O)[C@H](Cc2cccnc2)N(C)C1=O` [PDC_EphA2-00018526, dahp-Me3Py-N-L-Hgl-MeF-W1Me-KCOpipzaa-W1Me-T-Hgn-C-NH2] ({CH2CO}-[dAhp(2)][NMe3Pal]NL[Aad][NMeF][Trp(1-Me)]K([CO-Piperazinyl(4-CH2COOH)])[Trp(1-Me)]T[Aad](NH2)C-NH2; thioether N-12), the Kd is below 1 nM. Consider `CC(C)C[C@@H]1NC(=O)[C@H](CC(N)=O)NC(=O)[C@H](Cc2cccnc2)N(C)C(=O)[C@@H](C)NC(=O)CSC[C@@H](C(N)=O)NC(=O)[C@H](CCCC(N)=O)NC(=O)[C@H]([C@@H](C)O)NC(=O)[C@H](Cc2cn(C)c3ccccc23)NC(=O)[C@H](CCCCNC(=O)N2CCN(CC(=O)O)CC2)NC(=O)[C@H](Cc2cn(C)c3ccccc23)NC(=O)[C@H](Cc2ccc(Cl)cc2)N(C)C(=O)[C@H](CCCC(=O)O)NC1=O` [PDC_EphA2-00018527, da-Me3Py-N-L-Hgl-MeF4C-W1Me-KCOpipzaa-W1Me-T-Hgn-C-NH2] ({CH2CO}-[dA][NMe3Pal]NL[Aad][NMePhe(4-Cl)][Trp(1-Me)]K([CO-Piperazinyl(4-CH2COOH)])[Trp(1-Me)]T[Aad](NH2)C-NH2; thioether N-12), for which the Kd was below 1 nM.

For the compound `CNC(=O)C[C@@H]1NC(=O)[C@H]([C@@H](C)O)NC(=O)[C@H](Cc2cn(C)c3ccccc23)NC(=O)[C@H](CCCCNC(=O)N2CCN(CC(=O)O)CC2)NC(=O)[C@H](Cc2cn(C)c3ccccc23)NC(=O)[C@H](Cc2ccccc2)N(C)C(=O)[C@H](CCCC(=O)O)NC(=O)[C@H](CC(C)C)NC(=O)[C@H](CC(N)=O)NC(=O)[C@H](Cc2cccnc2)N(C)C(=O)[C@@H](C)NC(=O)CSC[C@@H](C(N)=O)NC1=O` [PDC_EphA2-00018528, da-Me3Py-N-L-Hgl-MeF-W1Me-KCOpipzaa-W1Me-T-Nmm-C-NH2] ({CH2CO}-[dA][NMe3Pal]NL[Aad][NMeF][Trp(1-Me)]K([CO-Piperazinyl(4-CH2COOH)])[Trp(1-Me)]TD(NHMe)C-NH2; thioether N-12), the Kd was below 1 nM. The value for `CC(C)C[C@@H]1NC(=O)[C@H](CC(N)=O)NC(=O)[C@H](Cc2cccnc2)N(C)C(=O)[C@@H](C)NC(=O)CSC[C@@H](C(N)=O)NC(=O)[C@H](CC(=O)N(C)C)NC(=O)[C@H]([C@@H](C)O)NC(=O)[C@H](Cc2cn(C)c3ccccc23)NC(=O)[C@H](CCCCNC(=O)N2CCN(CC(=O)O)CC2)NC(=O)[C@H](Cc2cn(C)c3ccccc23)NC(=O)[C@H](Cc2ccccc2)N(C)C(=O)[C@H](CCCC(=O)O)NC1=O` [PDC_EphA2-00018529, da-Me3Py-N-L-Hgl-MeF-W1Me-KCOpipzaa-W1Me-T-Ndm-C-NH2] ({CH2CO}-[dA][NMe3Pal]NL[Aad][NMeF][Trp(1-Me)]K([CO-Piperazinyl(4-CH2COOH)])[Trp(1-Me)]TD(NMe2)C-NH2; thioether N-12) was below 1 nM. With `CCCCC[C@H]1NC(=O)CSC[C@@H](C(N)=O)NC(=O)[C@H](CCCC(N)=O)NC(=O)[C@H]([C@@H](C)O)NC(=O)[C@H](Cc2cn(C)c3ccccc23)NC(=O)[C@H](CCCCNC(=O)N2CCN(CC(=O)O)CC2)NC(=O)[C@H](Cc2cn(C)c3ccccc23)NC(=O)[C@H](CCC(=O)O)N(C)C(=O)[C@H](CCCC(N)=O)NC(=O)[C@H](CC(C)C)NC(=O)[C@H](CC(N)=O)NC(=O)[C@H](Cc2cccnc2)N(C)C1=O` [PDC_EphA2-00018530, dahp-Me3Py-N-L-Hgn-MeE-W1Me-KCOpipzaa-W1Me-T-Hgn-C-NH2] ({CH2CO}-[dAhp(2)][NMe3Pal]NL[Aad](NH2)[NMeE][Trp(1-Me)]K([CO-Piperazinyl(4-CH2COOH)])[Trp(1-Me)]T[Aad](NH2)C-NH2; thioether N-12), the dissociation constant Kd was below 1 nM. Turning to `CNC(=O)C[C@@H]1NC(=O)[C@H](CC(C)C)NC(=O)[C@H](CC(N)=O)NC(=O)[C@H](Cc2cccnc2)N(C)C(=O)[C@@H](C)NC(=O)CSC[C@@H](C(N)=O)NC(=O)[C@H](CCCC(N)=O)NC(=O)[C@H]([C@@H](C)O)NC(=O)[C@H](Cc2cn(C)c3ccccc23)NC(=O)[C@H](CCCCNC(=O)N2CCN(CC(=O)O)CC2)NC(=O)[C@H](Cc2cn(C)c3ccccc23)NC(=O)[C@H](CCC(=O)O)N(C)C1=O` [PDC_EphA2-00018531, da-Me3Py-N-L-Nmm-MeE-W1Me-KCOpipzaa-W1Me-T-Hgn-C-NH2] ({CH2CO}-[dA][NMe3Pal]NLD(NHMe)[NMeE][Trp(1-Me)]K([CO-Piperazinyl(4-CH2COOH)])[Trp(1-Me)]T[Aad](NH2)C-NH2; thioether N-12), the dissociation constant (Kd) was below 1 nM. The value for `CC(C)C[C@@H]1NC(=O)[C@H](CC(N)=O)NC(=O)[C@H](Cc2cccnc2)N(C)C(=O)[C@@H](C)NC(=O)CSC[C@@H](C(N)=O)NC(=O)[C@H](CCCC(N)=O)NC(=O)[C@H]([C@@H](C)O)NC(=O)[C@H](Cc2cn(C)c3ccccc23)NC(=O)[C@H](CCCCNC(=O)N2CCN(CC(=O)O)CC2)NC(=O)[C@H](Cc2cn(C)c3ccccc23)NC(=O)[C@H](CCC(=O)O)N(C)C(=O)[C@H](CC(=O)N(C)C)NC1=O` [PDC_EphA2-00018532, da-Me3Py-N-L-Ndm-MeE-W1Me-KCOpipzaa-W1Me-T-Hgn-C-NH2] ({CH2CO}-[dA][NMe3Pal]NLD(NMe2)[NMeE][Trp(1-Me)]K([CO-Piperazinyl(4-CH2COOH)])[Trp(1-Me)]T[Aad](NH2)C-NH2; thioether N-12) was below 1 nM. With `CNC(=O)C[C@@H]1NC(=O)[C@H]([C@@H](C)O)NC(=O)[C@H](Cc2cn(C)c3ccccc23)NC(=O)[C@H](CCCCNC(=O)N2CCN(CC(=O)O)CC2)NC(=O)[C@H](Cc2cn(C)c3ccccc23)NC(=O)[C@H](CCC(=O)O)N(C)C(=O)[C@H](CCCC(N)=O)NC(=O)[C@H](CC(C)C)NC(=O)[C@H](CC(N)=O)NC(=O)[C@H](Cc2cccnc2)N(C)C(=O)[C@@H](C)NC(=O)CSC[C@@H](C(N)=O)NC1=O` [PDC_EphA2-00018533, da-Me3Py-N-L-Hgn-MeE-W1Me-KCOpipzaa-W1Me-T-Nmm-C-NH2] ({CH2CO}-[dA][NMe3Pal]NL[Aad](NH2)[NMeE][Trp(1-Me)]K([CO-Piperazinyl(4-CH2COOH)])[Trp(1-Me)]TD(NHMe)C-NH2; thioether N-12) the figure was below 1 nM.
